Consider ten molecules from US6770637B2, “Substituted 4-phenyl-pyridine compounds with activity as antagonists of neurokinin 1 receptors” (Hoffmann-La Roche Inc., priority 2000, dated 2004).

Each structure is given as a SMILES string.

The target of the test is T1, human NK1 receptor (Homo sapiens, UniProt P25103).
T1 construct: expressed in transfected cells; host or cells: CHO cells infected with the Semliki virus expression system; membrane suspension
T1 sequence (P25103 whole entry): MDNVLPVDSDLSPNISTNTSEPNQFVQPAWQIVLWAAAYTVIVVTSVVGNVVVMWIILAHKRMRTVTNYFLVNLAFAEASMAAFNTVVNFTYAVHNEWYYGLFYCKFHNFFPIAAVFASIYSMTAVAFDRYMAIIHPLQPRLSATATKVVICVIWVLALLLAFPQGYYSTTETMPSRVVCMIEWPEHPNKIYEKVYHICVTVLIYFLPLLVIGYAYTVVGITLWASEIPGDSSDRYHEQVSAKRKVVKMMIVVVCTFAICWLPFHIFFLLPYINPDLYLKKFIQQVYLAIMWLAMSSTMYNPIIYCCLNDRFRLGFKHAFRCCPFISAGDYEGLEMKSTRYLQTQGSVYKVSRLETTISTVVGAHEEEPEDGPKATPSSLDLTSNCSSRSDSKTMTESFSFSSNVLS
In words: NK1 receptor binding assay, displacement of [3H]substance P. The conditions noted are these: affinity to the NK-1 receptor; human NK1 receptors in CHO cells (Semliki virus expression system); [3H]substance P 0.6 nM. Here is the method: The affinity of tests compounds for the NK1 receptor was evaluated at human NK 1 receptors in CHO cells infected with the human NK1 receptor (using the Semliki virus expression system) and radiolabelled with [^3H]substance P (final concentration 0.6 nM.) Binding assays were performed in HEPES buffer (50 mM, pH 7.4) containing BSA (0.04%) leupeptin (8 μg/ml), MnCl2 (3 mM) and phosphoramidon (2 μM). Binding assays consisted of 250 μl of membrane suspension (1.25×10^5 cells/assay tube), […] of bugger of displacing agent and 125 μl of [^3H]substance P. Displacement curves were determined with at least seven concentrations of the compound. The assay tubes were incubated for 60 min at room temperature after which time the tube contents were rapidly filtered under vacuum through GF/C filters presoaked for 60 min with PEI (0.3%) with 2×2 ml washes of HEPES buffer (50 mM, pH 7.4). The radioactivity retained on the filters was measured by scintillation counting. All assays were performed in triplicate in at least 2 separate experiments.
(Loss of bound radioactivity is the signal in a displacement assay; it reports binding, not function.)
What is called Ki is a measure of affinity in units of concentration, obtained from inhibition or displacement. `Cc1ccccc1-c1cc([S+]([O-])c2ccccn2)ncc1C(=O)N(C)Cc1cc(C(F)(F)F)cc(C(F)(F)F)c1` (racemic) [Example 99, (RS)-N-(3,5-Bis-trifluoromethyl-benzyl)-N-methyl-6-(pyridine-2-sulfinyl)-4-o-tolyl-nicotinamide] showed a Ki of 2.63 nM. In the case of `Cc1ccccc1-c1cc(N(O)CCO)ncc1N(C)C(=O)C(C)(C)c1cc(C(F)(F)F)cc(C(F)(F)F)c1` [Example 8, 2-(3,5-Bis-trifluoromethyl-phenyl)-N-{6-[hydroxy-(2-hydroxy-ethyl)-amino]-4-o-tolyl-pyridin-3-yl}-N-methyl-isobutyramide], affinity was put at a Ki of 0.513 nM. As to `Cc1ccccc1-c1cc(NC(=O)CO)ncc1N(C)C(=O)C(C)(C)c1cc(C(F)(F)F)cc(C(F)(F)F)c1` [Example 13, 2-(3,5-Bis-trifluoromethyl-phenyl)-N-[6-(2-hydroxy-acetylamino)-4-o-tolyl-pyridin-3-yl]-N-methyl-isobutyramide], the Ki was 1.62 nM. In the case of `Cc1ccccc1-c1cc(N(C(=O)C2CC2)C(=O)C2CC2)ncc1N(C)C(=O)C(C)(C)c1cc(C(F)(F)F)cc(C(F)(F)F)c1` [Example 16, Cyclopropanecarboxylic acid (5-{[2-(3,5-bis-trifluoromethyl-phenyl)-2-methyl-propionyl]-methyl-amino}-4-o-tolyl-pyridin-2-yl)-cyclopropanecarbonyl-amide] it was 3.16 nM; in that of `Cc1ccccc1-c1cc(Cl)ncc1N(C)C(=O)C(C)(C)c1cc(C(F)(F)F)cc(C(F)(F)F)c1` [Example 26, 2-(3,5-Bis-trifluoromethyl-phenyl)-N-(6-chloro-4-o-tolyl-pyridin-3-yl)-N-methyl-isobutyramide], 2.24 nM. `CC(=O)c1ccc(-c2cc(-c3ccccc3C)c(C(=O)N(C)Cc3cc(C(F)(F)F)cc(C(F)(F)F)c3)cn2)s1` [Example 38, 6-(5-Acetyl-thiophen-2-yl)-N-(3,5-bis-trifluoromethyl-benzyl)-N-methyl-4-o-tolyl-nicotinamide]: the Ki is 2.14 nM. The same measure for `Cc1ccccc1-c1cc(C2=CCNCC2)ncc1C(=O)N(C)Cc1cc(C(F)(F)F)cc(C(F)(F)F)c1` [Example 42, 4-o-Tolyl-1′,2′,3′,6′-tetrahydro-[2,4′]bipyridinyl-5-carboxylic acid (3,5-bis-trifluoromethyl-benzyl)-methyl-amide]: 0.832 nM. `Cc1noc(-c2cc(-c3ccccc3C)c(C(=O)N(C)Cc3cc(C(F)(F)F)cc(C(F)(F)F)c3)cn2)n1` [Example 62, N-(3,5-Bis-trifluoromethyl-benzyl)-N-methyl-6-(3-methyl-[1,2,4]oxadiazol-5-yl)-4-o-tolyl-nicotinamide] showed a Ki of 3.02 nM. Regarding `C#Cc1cc(-c2ccccc2C)c(N(C)C(=O)C(C)(C)c2cc(C(F)(F)F)cc(C(F)(F)F)c2)cn1` [Example 66, 2-(3,5-Bis-trifluoromethyl-phenyl)-N-(6-ethynyl-4-o-tolyl-pyridin-3-yl)-N-methyl-isobutyramide], the Ki was 2.69 nM.

Consider `Cc1ccccc1-c1cc(OCCCO)ncc1C(=O)N(C)Cc1cc(C(F)(F)F)cc(C(F)(F)F)c1` [Example 113, N-(3,5-Bis-trifluoromethyl-benzyl)-6-(3-hydroxy-propoxy)-N-methyl-4-o-tolyl-nicotinamide], for which the affinity corresponds to a Ki of 1.66 nM.
